Test results published in PMC7370187, “Screening of an Epigenetic Drug Library Identifies 4-((hydroxyamino)carbonyl)-N-(2-hydroxyethyl)-N-Phenyl-Benzeneacetamide that Reduces Melanin Synthesis by Inhibiting Tyrosinase Activity Independently of Epigenetic Mechanisms” (International Journal of Molecular Sciences, 2020).

Columns and labels:
human TYR = target: T1, human TYR (Homo sapiens, UniProt P14679); test: In vitro TYR catalytic activity assay, lysate of HEK293-TYR cells; format: biochemical
T1 construct: expressed in transfected cells; Triton X-100 lysate supernatant
T1 sequence (P14679 19-529): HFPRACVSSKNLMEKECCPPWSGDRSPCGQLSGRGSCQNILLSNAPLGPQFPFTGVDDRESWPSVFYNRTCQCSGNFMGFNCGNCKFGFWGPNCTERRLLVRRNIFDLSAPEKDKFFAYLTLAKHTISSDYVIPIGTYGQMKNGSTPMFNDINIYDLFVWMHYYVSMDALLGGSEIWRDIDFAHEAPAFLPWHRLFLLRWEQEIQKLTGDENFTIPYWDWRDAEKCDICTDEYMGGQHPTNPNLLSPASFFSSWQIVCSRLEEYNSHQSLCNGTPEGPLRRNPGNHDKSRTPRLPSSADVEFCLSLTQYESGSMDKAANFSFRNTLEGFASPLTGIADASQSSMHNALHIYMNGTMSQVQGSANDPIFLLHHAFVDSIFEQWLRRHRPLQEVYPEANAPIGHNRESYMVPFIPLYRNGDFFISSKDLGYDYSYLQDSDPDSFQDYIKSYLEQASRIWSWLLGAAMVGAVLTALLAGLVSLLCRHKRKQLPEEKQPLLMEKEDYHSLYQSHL
Procedure: (§1) To examine the direct effect of a drug on the catalytic activity of TYR, in vitro experiments were undertaken. Lysate of B16F10 cells stimulated with α-MSH for 24 h was used as a murine TYR preparation. Human TYR preparation was the lysate of human embryonic kidney 293 cells constitutively expressing human TYR (HEK293-TYR). […] The TYR activity assay mixture (200 μL) consisted of 100 mM sodium phosphate buffer (pH 6.8), TYR preparation (40 μg protein), a drug at various concentrations, 1.0 mM L-tyrosine, and 42 μΜ L-DOPA. For enzyme kinetic study, the concentrations of L-tyrosine plus L-DOPA were varied while their relative ratio was kept the same as the standard assay condition. […] The reactions were also performed in the absence of a TYR preparation to correct for the effects of non-enzymatic reactions. Enzyme activity was calculated as follows: activity (% control) = (C−D)/(A−B) × 100, where A and B are the absorbance changes of the control group with and without enzyme, respectively, while C and D are the absorbance changes of the test group with and without enzyme, respectively.

TYR = test: In vitro TYR catalytic activity, murine and human TYR given together (abstract); format: biochemical; conditions: range over human and murine TYR preparations
Procedure: as §1

murine TYR = target: T2, murine TYR (Mus musculus, UniProt P11344); test: In vitro TYR catalytic activity assay, lysate of α-MSH-stimulated B16F10 cells; format: biochemical
T2 construct: One is the protein extract of B16F10 cells stimulated by α-MSH and thus expresses a high amount of TYR; endogenous in cells; host or cells: B16F10 murine melanoma cells stimulated with α-MSH for 24 h; Triton X-100 lysate supernatant
T2 sequence (P11344 19-533): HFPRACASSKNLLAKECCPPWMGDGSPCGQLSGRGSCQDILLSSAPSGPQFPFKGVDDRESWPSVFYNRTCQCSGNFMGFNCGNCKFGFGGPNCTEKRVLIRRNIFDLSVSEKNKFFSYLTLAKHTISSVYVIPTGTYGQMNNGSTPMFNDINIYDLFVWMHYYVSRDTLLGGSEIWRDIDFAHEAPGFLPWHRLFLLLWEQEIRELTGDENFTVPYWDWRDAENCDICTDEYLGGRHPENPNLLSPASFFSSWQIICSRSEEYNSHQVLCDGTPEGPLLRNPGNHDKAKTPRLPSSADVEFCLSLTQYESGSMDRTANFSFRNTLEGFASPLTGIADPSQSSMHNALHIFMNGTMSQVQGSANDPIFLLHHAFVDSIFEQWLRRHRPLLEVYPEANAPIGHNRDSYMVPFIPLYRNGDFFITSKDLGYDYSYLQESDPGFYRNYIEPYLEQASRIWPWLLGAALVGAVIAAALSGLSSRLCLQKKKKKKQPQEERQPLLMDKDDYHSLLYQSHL
Procedure: as §1

[1] = tested on: TYR, TYRP1, DCT and MITF protein in B16-F10 cells; test: Western blotting of melanogenic proteins; format: cell-based, murine; conditions: 100 nM α-MSH, 24 h, β-actin loading control
Procedure: Western blotting was performed as previously described. Primary antibodies for TYR (#127217) was purchased from MyBioSource (San Diego, CA, USA). Primary antibodies for TYRP1 (#10443) and β-actin (#47778) were purchased from Santa Cruz Biotechnology (Santa Cruz, CA, USA). Primary antibodies for MITF (#20663) and DCT (#74073) were purchased from Abcam (Cambridge, UK). Anti-rabbit IgG (#2357) and anti-goat IgG (#2020) secondary antibodies were purchased from Santa Cruz Biotechnology. Anti-mouse IgG (#7076) secondary antibody was purchased from Cell Signaling Technology (Danvers, MA, USA). Each antibody was diluted 1 to 1000 in antibody dilution buffer containing 20 mM Tris-Cl (pH 7.5), 200 mM NaCl and 5% skim milk.
After B16-F10 cells were treated with drug and/or α-MSH, whole-cell lysates were prepared using a lysis buffer (pH 7.2) consisting of 10 mM Tris-Cl (pH 7.4), 120 mM NaCl, 25 mM KCl, 2 mM EGTA, 1 mM EDTA, 0.5% Triton X-100 and a protease inhibitor cocktail (Roche, Mannheim, Germany) for foe evaluation of TYR, TYRP1, and DCT. For MITF extraction, cells were extracted with RIPA buffer consisting of 25 mM Tris-HCl (pH 7.6), 150 mM NaCl, 1% NP-40, 1% sodium deoxycholate, 0.1% SDS and protease inhibitor cocktail. Proteins were denatured in the Laemmli sample buffer by heating at 95 °C for 5 min and separated by 7.5% SDS-PAGE gel. Proteins were transferred to a polyvinylidene difluoride membrane (Amersham Pharmacia, Little Chalfont, UK). The membrane was incubated with a primary antibody solution at 4 °C overnight, followed by incubation with a solution of a secondary antibody conjugated to horseradish peroxidase at room temperature for 1 h. The target protein bands were detected by a chemiluminescence method using a picoEPD Western Reagent kit (ELPIS-Biotech, Daejeon, Korea). The blots were analyzed using the NIH Image J program.

B16-F10 cells = test: Cell viability assay (MTT); format: cell-based, murine; conditions: 48 h
Procedure: Cell viability was evaluated using 3-(4,5-dimethylthiazol-2-yl)-2,5-diphenyltetrazolium bromide (MTT). After treatment of B16-F10 cells with each drug for 48 h, cells were washed with phosphate-buffered saline (PBS) and incubated for 2 h in the culture medium containing 1 mg∙mL^−1 MTT (Amresco, Solon, OH, USA). The medium was discarded by aspiration, the formazan dye deposited inside the cells was extracted with isopropanol, and absorbance was measured at 595 nm using a Spectrostar Nano microplate reader.

IC50 (human TYR; HEK293-TYR cell-free extract, L-tyrosine plus L-DOPA): 1.1 µM | human TYR inhibitory effect (human TYR; each drug at 1.0 μM, library screening): potent TYR inhibitory effects | IC50 (TYR): 1.1 to 1.5 µM | IC50 (murine TYR; B16F10 cell-free extract, L-tyrosine plus L-DOPA): 1.5 µM | inhibition type (Lineweaver–Burk plots) (murine TYR; murine TYR, varying substrate concentrations): competitive type of inhibition
Compound: O=C(NO)c1ccc(CC(=O)N(CCO)c2ccccc2)cc1 [K8, 4-((hydroxyamino)carbonyl)-N-(2-hydroxyethyl)-N-phenyl-benzeneacetamide]
DCT protein level [1]: did not significantly attenuate the increase | MITF protein expression [1]: not significantly affected | TRP1 (TYRP1) protein level [1]: did not significantly attenuate the increase | TYR protein level [1]: did not significantly attenuate the increase | relative viability (B16-F10 cells; drug 1.0 μM): without reducing cell viability | cytotoxicity (relative viability) (B16-F10 cells; drug at various concentrations): did not show toxic effects up to 10 μM
